Reference: PubChem BioAssay AID268 (DTP/NCI, 2004)
“And” between values parts separate entries of the source, which are not always exact repeats. Equal values may be shown once.

System: CD2F1 mice, P1798 lymphosarcoma sc, tumor weight T/C
Assay: NCI In Vivo Anticancer Drug Screen. Data for tumor model P1798 Lymphosarcoma (subcutaneous) in CD2F1 (CDF1) mice
Conditions: endpoint: mean tumor weight, higher = larger tumour
Method: The antitumor activity of compounds was measured in mice bearing transplantable tumors. Survival or tumor size were measured and the results are expressed as the measurement made in the treated group (T) divided by the measurement made in the vehicle treated control group (C). The tumor model used in this assay is P1798 Lymphosarcoma (subcutaneous) in CD2F1 (CDF1) mice

[1] = dose: 5.0 mg/kg/injection, schedule: Q01DX010 (ip), vehicle: saline
[2] = dose: 8.0 mg/kg/injection, schedule: Q01DX010 (ip), vehicle: saline
[3] = dose: 50.0 mg/kg/injection, schedule: Q01DX010 (ip), vehicle: saline
[4] = dose: 125.0 mg/kg/injection, schedule: Q01DX010 (ip), vehicle: saline
[5] = dose: 12.5 mg/kg/injection, schedule: Q01DX010 (sc), vehicle: steriod suspending solution
[6] = dose: 25.0 mg/kg/injection, schedule: Q01DX010 (sc), vehicle: steriod suspending solution
[7] = dose: 50.0 mg/kg/injection, schedule: Q01DX010 (sc), vehicle: steriod suspending solution
[8] = dose: 2.0 mg/kg/injection, schedule: Q01DX010 (ip), vehicle: saline
[9] = dose: 0.25 mg/kg/injection, schedule: Q01DX010 (ip), vehicle: saline
[10] = dose: 1.0 mg/kg/injection, schedule: Q01DX010 (ip), vehicle: saline

## c1ccc(COCC[P+](c2ccccc2)(c2ccccc2)c2ccccc2)cc1
dose: 3.0 mg/kg/injection, schedule: Q01DX010 (ip), vehicle: saline
  T/C: 76 % of control
[1]
  T/C: 98 % of control
[2]
  T/C: 88 % of control
dose: 12.0 mg/kg/injection, schedule: Q01DX010 (ip), vehicle: saline
  T/C: 33 % of control

## NCC(=O)NCCCCCCNCCCCCCNC(=O)CN
[3]
  T/C: 82 % of control
dose: 100.0 mg/kg/injection, schedule: Q01DX010 (ip), vehicle: saline
  T/C: 113 % of control
dose: 200.0 mg/kg/injection, schedule: Q01DX010 (ip), vehicle: saline
  T/C: 89 % of control
dose: 400.0 mg/kg/injection, schedule: Q01DX010 (ip), vehicle: saline
  T/C: 73 % of control

## CCCCCC(=O)O[C@]1(C(C)=O)CC[C@H]2[C@@H]3CCC4=CC(=O)CC[C@]4(C)[C@H]3CC[C@@]21C
dose: 250.0 mg/kg/injection, schedule: Q01DX010 (sc), vehicle: steriod suspending solution
  T/C: 110 % of control
dose: 375.0 mg/kg/injection, schedule: Q01DX010 (sc), vehicle: steriod suspending solution
  T/C: 106 % of control
dose: 500.0 mg/kg/injection, schedule: Q01DX010 (sc), vehicle: steriod suspending solution
  T/C: 114 % of control
dose: 750.0 mg/kg/injection, schedule: Q01DX010 (sc), vehicle: steriod suspending solution
  T/C: 109 % of control

## NCCCC(N)C(=O)NCCCCCCCCCCNC(=O)C(N)CCCN (configuration not stated)
dose: 6.25 mg/kg/injection, schedule: Q01DX010 (ip), vehicle: saline
  T/C: 98 % of control
dose: 12.5 mg/kg/injection, schedule: Q01DX010 (ip), vehicle: saline
  T/C: 86 % of control
dose: 25.0 mg/kg/injection, schedule: Q01DX010 (ip), vehicle: saline
  T/C: 92 % of control
[3]
  T/C: 65 % of control

## CCCSc1ncnc2nc[nH]c12
[4]
  T/C: 21 % of control

## C[C@]12CC[C@@H]3c4ccc(O)cc4CC[C@H]3[C@@H]1CC[C@@H]2O
dose: 6.25 mg/kg/injection, schedule: Q01DX010 (sc), vehicle: steriod suspending solution
  T/C: 80 % of control and 90 % of control
[5]
  T/C: 70 % of control and 86 % of control
[6]
  T/C: 77 % of control and 81 % of control
[7]
  T/C: 100 % of control and 82 % of control

## CC(=O)O[C@H]1CC[C@H]2[C@@H]3CC[C@H]4CCCC[C@]4(C)[C@H]3CC[C@]12C
[5]
  T/C: 104 % of control and 121 % of control
[6]
  T/C: 103 % of control and 85 % of control
[7]
  T/C: 103 % of control

## CC(CCC(C)OS(C)(=O)=O)OS(C)(=O)=O (configuration not stated)
[8]
  T/C: 101 % of control
dose: 4.0 mg/kg/injection, schedule: Q01DX010 (ip), vehicle: saline
  T/C: 59 % of control and 78 % of control
[2]
  T/C: 101 % of control and 82 % of control

## CS(=O)(=O)OCCN(CCOS(C)(=O)=O)c1ccc(N=O)cc1
[9]
  T/C: 92 % of control
[10]
  T/C: 69 % of control

## C[C@]12CC[C@@H]3c4ccccc4CC[C@H]3[C@@H]1CC[C@@H]2O
dose: 100.0 mg/kg/injection, schedule: Q01DX010 (sc), vehicle: steriod suspending solution
  T/C: 94 % of control
dose: 200.0 mg/kg/injection, schedule: Q01DX010 (sc), vehicle: steriod suspending solution
  T/C: 74 % of control
dose: 400.0 mg/kg/injection, schedule: Q01DX010 (sc), vehicle: steriod suspending solution
  T/C: 33 % of control
dose: 800.0 mg/kg/injection, schedule: Q01DX010 (sc), vehicle: steriod suspending solution
  T/C: 7 % of control

## NC(Cc1c[nH]c2ccc(N(CCCl)CCCl)cc12)C(=O)O (configuration not stated)
[9]
  T/C: 106 % of control
dose: 0.5 mg/kg/injection, schedule: Q01DX010 (ip), vehicle: saline
  T/C: 97 % of control
[10]
  T/C: 40 % of control
[8]
  T/C: 13 % of control

## NC(Cc1ccc(N(CCCl)CCCl)cc1)C(=O)O (configuration not stated)
dose: 2.5 mg/kg/injection, schedule: Q01DX010 (ip), vehicle: saline
  T/C: 51 % of control
[1]
  T/C: 39 % of control

## COc1ccc2c(c1OC)C(=O)O[C@@H]2[C@H]1c2c(cc3c(c2OC)OCO3)CCN1C
dose: 15.6 mg/kg/injection, schedule: Q01DX010 (ip), vehicle: saline
  T/C: 107 % of control
dose: 31.3 mg/kg/injection, schedule: Q01DX010 (ip), vehicle: saline
  T/C: 78 % of control
[4]
  T/C: 97 % of control
dose: 250.0 mg/kg/injection, schedule: Q01DX010 (ip), vehicle: saline
  T/C: 78 % of control

## CN1CC[C@]23c4c5ccc(O)c4O[C@H]2C(=O)CC[C@H]3[C@H]1C5
[2]
  T/C: 94 % of control and 80 % of control
dose: 16.0 mg/kg/injection, schedule: Q01DX010 (ip), vehicle: saline
  T/C: 76 % of control and 79 % of control
dose: 32.0 mg/kg/injection, schedule: Q01DX010 (ip), vehicle: saline
  T/C: 74 % of control and 85 % of control
dose: 64.0 mg/kg/injection, schedule: Q01DX010 (ip), vehicle: saline
  T/C: 93 % of control and 70 % of control
